In publication PMC2896556 (Biochemistry, 2010):
Read-outs that look alike come from different tables or passages of the source.

Legend:
RT subunit interactions = settings: cited from earlier work
p66 = p66 (Human immunodeficiency virus type 1 group M subtype B, UniProt P04585); parameters: species or system HIV-1; settings: 3 μM p66, 25 μM NNRTI, 1 wk
RT dimerization [1] = settings: yeast-two hybrid; cited from earlier work
RT dimerization [2] = settings: urea denaturation; cited from earlier work
p51/p51 = settings: cited from earlier work
p66/p66 = settings: cited from earlier work

Row | SMILES | effect on RT subunit interactions (RT subunit interactions) | other results
1 | CC(C)(C)c1ccc(C(=O)NN=Cc2ccccc2O)cc1 [BBSH, (4-tert-butylbenzoyl)-2-hydroxy-1-salicylyl hydrazone] | weaken subunit interactions | 
2 | Cc1ccnc2c1NC(=O)c1cccnc1N2C1CC1 [nevirapine] | enhance subunit interactions | effect on p66 dimerization (p66): enhance dimerization; effect on RT dimerization (RT dimerization [1]): small enhancement of dimerization; effect on RT dimerization (RT dimerization [2]): no effect
3 | CC(C)(C)c1ccc(C(=O)NN=Cc2c(O)ccc3ccccc23)cc1 [BBNH, N-(4-tert-butylbenzoyl)-2-hydroxy-1-naphthaldehyde hydrazone] | weaken subunit interactions | 
4 | O=C1Nc2ccc(Cl)cc2[C@@](C#CC2CC2)(C(F)(F)F)O1 [efavirenz] | enhance subunit interactions | enhancement of dimer formation (p51/p51): 600 fold; enhancement of dimer formation (p66/p66): 50 fold
5 | CCn1c(=O)c(C)cn([C@@H]2O[C@H](CO[Si](C)(C)C(C)(C)C)C3(OS(=O)(=O)C=C3N)[C@H]2O[Si](C)(C)C(C)(C)C)c1=O (stereo partly drawn) [TSAOe^3T, 1-(spiro{4”-amino-2”,2”-dioxo-1”,2”-oxathiole-5”,3′-[2′,5′-bis-O-(tert-butyldimethylsilyl)-β-D-ribofuranosyl]})-3-ethylthymine] | weaken subunit interactions | 
6 | CC(C)Nc1cccnc1N1CCN(C(=O)c2cc3cc(NS(C)(=O)=O)ccc3[nH]2)CC1 [delavirdine] | little or no effect | 
